From US4057686A, “Sulphonic acid salts of S-adenosilmethionine” (Bioresearch Limited, priority 1974, dated 1977)
Read-outs that look alike come from different tables or passages of the source.

Tests used:
[1] = system: Parkinsons disease and Parkinsonisms; assay: Clinical tests: Parkinsons disease and Parkinsonisms, with Levodopa; assay type: in vivo, human
mouse = assay: Acute toxicity (DL50) in the mouse; assay type: in vivo
From the text: In particular, the DL50 in the mouse in greater than 2.5 g/kg/os and 1.00 g/kg/i.p.

rabbits = settings: rabbit, in vivo
rats = settings: rat, in vivo
rabbit [2] = assay: Local tolerability of injections; assay type: in vivo
[3] = system: young volunteer healthy subjects of both sexes; assay: Tolerability in young volunteer healthy subjects; assay type: in vivo; settings: man, 5-150 mg
[4] = in vivo, 4.2 mg/kg; for Distribution of SAM in rat tissues: Hypophysis / Distribution of SAM in rat tissues: Hypothalamus / Distribution of SAM in rat tissues: Liver / Distribution of SAM in rat tissues: Plasma / Distribution of SAM in rat tissues: Rind / Distribution of SAM in rat tissues: Spleen / Distribution of SAM in rat tissues: Suprarenal glands: iv
Experimental: In order to indicatively determine how SAM is distributed in the tissues, S-Adenosilmethionine (Methyl C^14) was prepared. The distribution of this product in rats was studied by administering a dose of 4.2 mg/kg/e.v. equal to approxymately 10 μci of radioactive product. The specific activity of the product was 58 mCi/m moles.

[5] = mouse, in vivo
From the text: Parallel with this, an autoradiographic study was made on the mouse.

hepatic steatosis = assay: Hepatic steatosis models in rats (Handler diet, acute alcoholic intoxication, toxic agents); assay type: in vivo, rat
From the text: (§1) This was confirmed by subsequent pharmacological tests.

hepatic phospholipids = assay: Hepatic phospholipids in rats after intoxication with CCl4; assay type: in vivo, rat
From the text: as §1
Hepatic phospholipids in rats after intoxication with CCl4 and treatment with SAM.
(§2) The values are the averages ± E.S. of 10 values for each group. In studying the hepatoprotective activity we have used an experimental device which produces in the rat the so-called hepatic cholesterol degeneration (Ridout and Coll., Biochem. J. 52, 99, 1952).

[6] = system: hepatic cholesterol degeneration; assay: Hepatic cholesterol degeneration in the rat (Ridout); assay type: in vivo; settings: for Fresh liver weight: three weeks
From the text: as §2
In this method, by means of a suitable diet, a conspicuous increase in the total hepatic fats and hepatic cholesterol are obtained in the animals. The substances which act in the lipidic metabolism reduce or annul this increase.
The animals were divided into six groups. The first group was administered with a diet which was varied at will. The second group was administered with the basic diet of Ridout (20 g per rat per day); the other groups were administered with the same diet in the same doses but enriched with cholesterol to the extent of 0.2 g/rat/day. The treatment lasted three weeks. The groups 4,5,6 were administered with SAM in the following doses:
0.4, 0.8, 2 mg/kg/i.p. per day.
At the end of the three weeks all the animals were killed, the livers were withdrawn and the total fats (Best and Coll., Biochem. J. 40, 368, 1966) and cholesterol (Sperry and Brand, J. Biol. Chem. 150, 315, 1943) were determined.

edema by carragenine = assay: Edema by carragenine (acute inflammation); assay type: in vivo; settings: orally 8 to 40 mg/kg; parenterally 4 to 8 mg/kg; in comparison with Ibuprofen, Indometacina
From the text: (§3) Of the various tests we shall mention the most classic, namely the edema by carragenine and by egg white as a test for acute inflammation; and granuloma by cotton pellets and arthritis by adjuvant as a test for chronic inflammation. […] The analgesia tests were in the form of the hot plate test and stretching by acetic acid, and the Randal and Selitto test in the rat.

edema by egg white = assay: Edema by egg white (acute inflammation); assay type: in vivo; settings: orally 8 to 40 mg/kg; parenterally 4 to 8 mg/kg; in comparison with Ibuprofen, Indometacina
From the text: as §3

[7] = system: granuloma by cotton pellets; assay: Granuloma by cotton pellets (chronic inflammation); assay type: in vivo; settings: orally 8 to 40 mg/kg; parenterally 4 to 8 mg/kg; in comparison with Ibuprofen, Indometacina
From the text: as §3

arthritis by adjuvant = assay: Arthritis by adjuvant (chronic inflammation); assay type: in vivo; settings: orally 8 to 40 mg/kg; parenterally 4 to 8 mg/kg; in comparison with Ibuprofen, Indometacina
From the text: as §3

hot plate test = assay: Hot plate analgesia test; assay type: in vivo; settings: in comparison with known drugs studied
From the text: as §3

[8] = system: stretching by acetic acid; assay: Stretching by acetic acid analgesia test; assay type: in vivo; settings: in comparison with known drugs studied
From the text: as §3

Randal and Selitto test = assay: Randal and Selitto analgesia test in the rat; assay type: in vivo; settings: in comparison with known drugs studied
From the text: as §3

[9] = system: sleeping time induced by hexobarbital; assay: Hexobarbital sleeping time in mice (Holten and Larsen); assay type: in vivo
Experimental: A further aspect considered by us was the possible action of SAM on the sleeping time by barbiturates.
For this purpose an experiment was carried out in which groups of mice received hexobarbital in a dose of 80 mg/kg/i.p. in accordance with the method of Holten and Larsen (Acta Pharmacol. Toxicol. 1956, 12, 346); one group was the control group and the second received SAM in a dose of 4 mg/kg/i.p. (table).

[10] = system: subjects with hyperdislipidemia in the uncompensated stage; assay: Clinical tests: hyperdislipidemia; assay type: in vivo, human; settings: 2-3 times per day
[11] = system: clear arteriosclerosis with clinical manifestations of the psycho-affective sphere; assay: Clinical tests: arteriosclerosis, hypoxydotic states, post-apoplectic syndromes; assay type: in vivo, human
[12] = system: subjects with hypoprotidemias, disprotidemias, chronic hepatopathias, precyrrotic and cyrrotic states, malabsorption and protide dispersing syndromes; assay: Clinical tests: hypoprotidemias, chronic hepatopathias, cyrrotic states, malabsorption; assay type: in vivo, human; settings: 20 to 80 mg per day, intermuscular, intravenous or oral
Experimental: 2. Hundreds of subjects were treated clinically affected with: secondary hypoprotidemias and disprotidemias; persistent and aggressive chronic hepatopathias; precyrrotic and cyrrotic states; malabsorption syndromes, and protide dispersing syndromes.

depressive forms = assay: Clinical tests: depressive forms (tests of Hamilton and Wittenberg); assay type: in vivo, human; settings: 8 to 20 mg 3-4 times per day, 5-15 days, no other therapy
osteoarthritic forms = assay: Clinical tests: osteoarthritis; assay type: in vivo, human
[13] = system: neuritis, polyneuritis, anthralgia, sciatica, radiocolitis, torticollis; cephalalgia
Experimental: The antalgic activity of SAM was also tested in different subjects with different neurological frameworks: neuritis, polyneuritis, anthralgia, sciatica, radiocolitis, torticollis.

[14] = system: disturbances of the sleeping-waking rhythm, insomnia; assay: Clinical tests: disturbances of the sleeping-waking rhythm; assay type: in vivo, human; settings: 4-13 mg orally
rabbit [15] = settings: in vivo, 16 mg/kg
cat = settings: in vivo, 16 mg/kg
[16] = SAM content / stability on storage in the dry state; assay type: physicochemical; settings: 60 days at 45°
Experimental: The great technical progress achieved by these new salts is their stability with time at 45° in the dry state.
The SAM content of all acids according to the present invention remains unchanged even after […] at 45° in the dry state.

N[C@@H](Cc1ccc(O)c(O)c1)C(=O)O [Levodopa, reference compound]
extent of the Parkinson tremor ([1]; Levodopa alone): cannot be modified

C[S+](CC[C@H](N)C(=O)O)C[C@H]1O[C@@H](n2cnc3c(N)ncnc32)[C@H](O)[C@@H]1O (stereo partly drawn) [SAM, S-Adenosil-L-Methionine]
DL50 in the mouse (mouse; i.p.): > 1.00 g/kg | DL50 in the mouse (mouse; os): greater than 2.5 g/kg | teratogenic actions or malformations (rabbits): no teratogenic actions were encountered or any malformations | teratogenic actions or malformations (rats): no teratogenic actions were encountered or any malformations | local tolerability of the intramuscular injection (rabbit [2]; intramuscular, even repeated over 180 days): excellent | local tolerability of the intravenous injection (rabbit [2]; intravenous, marginal vein of the auricular pavilion of the rabbit): excellent | hemopoietic apparatus and hepatic and renal operation ([3]; intravenous): no variations from normal which were statistically significant | electrocardiograph trace ([3]; intravenous, 30" to 20', PQ interval, ST section, extrasistol): does not show any variation | minimum and maximum pressure, pulse and respiratory frequency ([3]; rapid intravenous or phleboclysis, 1 minute to 24 hours): does not show any variation from normal values | Distribution of SAM in rat tissues: Hypophysis ([4]; 0.25 h): 2.3 μgr/gr | Distribution of SAM in rat tissues: Hypothalamus ([4]; 0.25 h): 0.3 μgr/gr | Distribution of SAM in rat tissues: Liver ([4]; 0.25 h): 1.7 μgr/gr | Distribution of SAM in rat tissues: Plasma ([4]; 0.25 h): 7.5 μgr/gr | Distribution of SAM in rat tissues: Rind ([4]; 0.25 h): 0.25 μgr/gr | Distribution of SAM in rat tissues: Spleen ([4]; 0.25 h): 1.3 μgr/gr | Distribution of SAM in rat tissues: Suprarenal glands ([4]; 0.25 h): 1.9 μgr/gr | Distribution of SAM in rat tissues: Hypophysis ([4]; 1 h): 2.5 μgr/gr | Distribution of SAM in rat tissues: Hypothalamus ([4]; 1 h): 0.65 μgr/gr | Distribution of SAM in rat tissues: Liver ([4]; 1 h): 3.0 μgr/gr | Distribution of SAM in rat tissues: Plasma ([4]; 1 h): 2.1 μgr/gr | Distribution of SAM in rat tissues: Rind ([4]; 1 h): 0.45 μgr/gr | Distribution of SAM in rat tissues: Spleen ([4]; 1 h): 1.2 μgr/gr | Distribution of SAM in rat tissues: Suprarenal glands ([4]; 1 h): 3.4 μgr/gr | Distribution of SAM in rat tissues: Hypophysis ([4]; 4 h): 8.0 μgr/gr | Distribution of SAM in rat tissues: Hypothalamus ([4]; 4 h): 1.0 μgr/gr | Distribution of SAM in rat tissues: Liver ([4]; 4 h): 5.5 μgr/gr | Distribution of SAM in rat tissues: Plasma ([4]; 4 h): 2.3 μgr/gr | Distribution of SAM in rat tissues: Rind ([4]; 4 h): 0.75 μgr/gr | Distribution of SAM in rat tissues: Spleen ([4]; 4 h): 3.5 μgr/gr | Distribution of SAM in rat tissues: Suprarenal glands ([4]; 4 h): 4.8 μgr/gr | Distribution of SAM in rat tissues: Hypophysis ([4]; 8 h): 4.5 μgr/gr | Distribution of SAM in rat tissues: Hypothalamus ([4]; 8 h): 1.3 μgr/gr | Distribution of SAM in rat tissues: Liver ([4]; 8 h): 5.6 μgr/gr | Distribution of SAM in rat tissues: Plasma ([4]; 8 h): 2.0 μgr/gr | Distribution of SAM in rat tissues: Rind ([4]; 8 h): 8.5 μgr/gr | Distribution of SAM in rat tissues: Spleen ([4]; 8 h): 2.6 μgr/gr | Distribution of SAM in rat tissues: Suprarenal glands ([4]; 8 h): 4.5 μgr/gr | Distribution of SAM in rat tissues: Hypophysis ([4]; 24 h): 4.2 μgr/gr | Distribution of SAM in rat tissues: Hypothalamus ([4]; 24 h): 1.3 μgr/gr | Distribution of SAM in rat tissues: Liver ([4]; 24 h): 5.7 μgr/gr | Distribution of SAM in rat tissues: Plasma ([4]; 24 h): 1.1 μgr/gr | Distribution of SAM in rat tissues: Rind ([4]; 24 h): 9.4 μgr/gr | Distribution of SAM in rat tissues: Spleen ([4]; 24 h): 2.8 μgr/gr | Distribution of SAM in rat tissues: Suprarenal glands ([4]; 24 h): 4.4 μgr/gr | distribution to tissues ([4]; rat): distributed very rapidly to all the tissues | distribution to tissues [5]: distributed very rapidly to all the tissues | accumulation of lipids at the hepatocite level (hepatic steatosis): significantly reduces | restoration of normal levels of phospholipids (hepatic phospholipids): favours the restoration of normal levels of phospholipids | protection of the batch ([6]; 2 mg/kg/i.p.): completely protected | protection of the batch ([6]; 0.4-0.8 mg/kg/i.p.): poorly protected | Fresh liver weight ([6]; batch IV, 0.4 mg/kg/i.p. per day): 17 g | Fresh liver weight ([6]; batch V, 0.8 mg/kg/i.p. per day): 16 g | anti-inflammatory activity (edema by carragenine): active | anti-inflammatory activity (edema by egg white): active | anti-inflammatory activity [7]: active | anti-inflammatory activity (arthritis by adjuvant): active | analgesic activity (hot plate test): active | analgesic activity [8]: active | analgesic activity (Randal and Selitto test): active | prolonging the sleeping time induced by hexobarbital [9]: active in prolonging the sleeping time | dose dependence of hypocholesterolemising and hypolipemising action ([10]; doses of about 8-1.5 mg): proportional to the dose | hypertriglyceridemia ([10]; hyperdislipidemia): a marked fall | total cholesterolemia ([10]; hyperdislipidemia): a marked fall | β/α lipoproteic ratios ([10]; hyperdislipidemia): normalises | symptomatology in arteriosclerosis ([11]; intermuscular, intravenous or slow phleboclysis, 8 to 16 mg 3-4 times per day): a very favourable modification of the symptomatology | improvement of the clinical framework in post-apoplectic syndromes ([11]; post-apoplectic syndromes): a greater rapidity was found in the improvement | albumin level [12]: an increase in the albumin level | percentage ratios between the electrophoretic fractions of the serum [12]: a tendency to normalise | subjective symptomology and general objective conditions [12]: often very important improvement | tests of hepatic functionality [12]: normalising of all the tests of hepatic functionality | total protidemia [12]: a statistically significant increase | remission of main parameters of depressive forms (depressive forms): a significant remissione of the main parameters | akinesia and rigidity ([1]; 4-16 mg per day with Levodopa, vs patients treated only with Levodopa): a statistically more significant improvement | extent of the Parkinson tremor ([1]; SAM in association with Levodopa): Favourable modifications | Levodopa dependent psychic disturbances ([1]; depressive states and psychic manifestations of irritative type): distinctly improves | Levodopa side effects ([1]; nausea, vomit, inappetite, hypotension, asthenia, cephalea, hypersudoration, insomnia, 4-16 mg per day): significantly blocks | activity in osteoarthritic forms (osteoarthritic forms; 13 mg twice a day intermuscular or intravenous, and 13-20 mg orally 4 times per day): active in all osteoarthritic forms | muscular spasm, limitation of movement, localised pain and rigidity (osteoarthritic forms; after 7 days, with respect to the placebo): influenced in a statistically significant manner | therapeutic efficiency vs non-steroid antiphlogistic drug (osteoarthritic forms; double blind study): equal to indomethacin | therapeutic (antalgic) effect ([13]; neurological frameworks, 6 mg twice a day intermuscular or 13-20 mg 3-4 times per day orally): available and efficient from the first day of administration | therapeutic effect in recurring and resistant cephalalgia ([13]; orally in masticable tablets): Analogous results were obtained | sleeping-waking ratios [14]: considerably improve | carotid pressure, cardiac and respiratory frequency, electrocardiac trace (rabbit [15]): does not cause any change | carotid pressure, cardiac and respiratory frequency, electrocardiac trace (cat): does not cause any change

C[S+](CC[C@H](N)C(=O)O)C[C@H]1O[C@@H](n2cnc3c(N)ncnc32)[C@H](O)[C@@H]1O (some centres unmarked) [chloride]
decomposition after 60 days [16]: completely decomposed
